The subject of the assay is Beagle/CSK strain dogs. The experiment in a line: Promoting action on bone formation: determination of bone area of femur. Particulars: for bone area: dog femur, 4 weeks. In kind it is in vivo, dog. From the text: Beagle/CSK strain dogs of 6-month old were used (n=3 to 6 per group). Into a physical saline solution, each (11 α, 15 α, 13E)-9-oxo-11,15-dihydroxy-16-(3-methoxymethylphenyl)-17,18,19,20-tetranor-5-t hiaprost-13-enoic acid methyl ester (methyl ester of a compound of the formula (IE)) α-cyclodextrin clathrate (containing rate of an active ingredient in α-cyclodextrin clathrate form is 25% w/w), (11 α, 15 α, 13E)-9-oxo-11,15-dihydroxy-16-(3-methoxymethylphenyl)-17,18,19,20-tetranor-3,7-dithiaprost-13-enoic acid (a compound of the formula (IF)), (9β, 11 α, 15 α, 5Z, 13E)-9-chloro-11,15-dihydroxy-16-(3-ethoxymethylphenyl)-17,18,19,20-tetranorpro st-5,13-dienoic acid (a compound of the formula (IG)), (11 α, 15 α, 13E)-9-oxo-11,15-dihydroxy-16-(3-methoxymethylphenyl)-17,18,19,20-tetranorpro st-13-enoic acid (methyl ester of a compound of the formula (IH)), and (11 α, 15 α, 5Z, 13E)-9-oxo-11,15-dihydroxy-16-(3-ethoxymethylphenyl)-17,18,19,20-tetranorprost-5,13-dienoic acid (a compound of the formula (IJ)) was dissolved, and administered continuously to each animal at the effective doses of 2, 5, 10 and 25 μg/kg/day, for 24 hours per day during 4 weeks. Each test solution was administered into femoral vein through holding-catheter at the rate of 0.2 ml/kg/hour. An equal volume of physical saline solution was administered into an animal of the control group. After termination of administration, each animal was sacrificed to carry out autopsy. The separated femur was fixed with 10% buffered formalin solution and then was cut into a round slice with the width of 10 mm vertically to longitudinal axis at the 25 mm central side from trochlea sulcus. Pictures of bone surface near side of epiphysis were taken with camera connected to the computer from the constant distance, and then the resulted digital image was analyzed to determine bone area.

Setting [1] is: 5 μg/kg/day continuous into femoral vein.

The structures appear in SMILES notation.

With `COCc1cccc(C[C@H](O)/C=C/[C@H]2[C@H](O)CC(=O)[C@@H]2SCCCSCC(=O)O)c1` [Invention compound (IF), (11 α, 15 α, 13E)-9-oxo-11,15-dihydroxy-16-(3-methoxymethylphenyl)-17,18,19,20-tetranor-3,7-dithiaprost-13-enoic acid], the bone area under setting [1] turned out to be 365.29 ± 73.63 mm^2.

In turn, `CCOCc1cccc(C[C@H](O)/C=C/[C@@H]2[C@@H](C/C=C\CCCC(=O)O)[C@H](Cl)C[C@H]2O)c1` [Invention compound (IG), (9β, 11 α, 15 α, 5Z, 13E)-9-chloro-11,15-dihydroxy-16-(3-ethoxymethylphenyl)-17,18,19,20-tetranorpro st-5,13-dienoic acid] registered a bone area (10 μg/kg/day continuous into femoral vein) of 140.10 ± 28.08 mm^2 and a bone area (25 μg/kg/day continuous into femoral vein) of 289.38 ± 120.50 mm^2. Further, where the note is “dog, 25 μg/kg/day”, the “increase of bone area compared with Untreated Group” value is on record as 4.2 fold.

Regarding `COCc1cccc(C[C@H](O)/C=C/[C@H]2[C@H](O)CC(=O)[C@@H]2CCCCCCC(=O)O)c1` [Invention compound (IH), (11 α, 15 α, 13E)-9-oxo-11,15-dihydroxy-16-(3-methoxymethylphenyl)-17,18,19,20-tetranorpro st-13-enoic acid], the bone area under setting [1] is on record as 362.99 ± 89.56 mm^2.

With `CCOCc1cccc(C[C@H](O)/C=C/[C@H]2[C@H](O)CC(=O)[C@@H]2C/C=C\CCCC(=O)O)c1` [Invention compound (IJ), (11 α, 15 α, 5Z, 13E)-9-oxo-11,15-dihydroxy-16-(3-ethoxymethylphenyl)-17,18,19,20-tetranorprost-5,13-dienoic acid], the bone area under setting [1] turned out to be 193.23 ± 11.32 mm^2.

Values taken from patent US6891062B2, “Pharmaceutical composition for treatment of diseases associated with decrease in bone mass” (Ono Pharmaceutical Co., Ltd., priority 1999, dated 2005).
